# How the values were obtained:
# Assay in all cases: spot-on-lawn antimicrobial activity test
# Assay type in all cases: cell-based
# [1] = tested on: Pseudomonas aeruginosa ATCC 27853
# Description: (§1) In order to evaluate the antimicrobial activity of the purified antimicrobial peptides PG1 and PMAP36 according to the embodiment of the present invention, a spot-on-lawn test was carried out using E. coli ATCC 25922, Pseudomonas aeruginosa ATCC 27853, and Staphylococcus aureus ATCC 29213.
# [2] = tested on: Escherichia coli ATCC 25922
# Description: as §1
# [3] = tested on: Staphylococcus aureus ATCC 29213
# Description: as §1
Substance,Antimicrobial activity assay for the recombinant AMP produced [1] [µg/mL],Antimicrobial activity assay for the recombinant AMP produced [2] [µg/mL],Antimicrobial activity assay for the recombinant AMP produced [3] [µg/mL]
"Protegrin 1 (RGGRLCYCRRRFCVCVGRG) [PG1, recombinantly produced antimicrobial peptide with anti-parallel beta-hairpin structure stabilized by two disulfide bonds, first discovered in pig leucocytes]",15,7,10
"pig myeloid antibacterial peptide36 (GRFRRLRKKTRKRLKKIGKVLKWIPPIVGSIPLGCG; listed as Sus scrofa) [PMAP36, recombinantly produced antimicrobial peptide having a helix structure]",11,10,9
